According to patent publication US20230009323A1, “COMPOUNDS AND METHODS FOR THE TREATMENT OF CRYPTOSPORIDIOSIS” (The Broad Institute, Inc., priority 2019, published 2023):

Columns and labels:
[1] = molecular target: recombinant C. hominis PheRS (ChPheRS) (Cryptosporidium hominis, UniProt A0A0S4TD72); assay: C. hominis PheRS aminoacylation assay; type: biochemical; details: aminoacylation activity
Description: The protein sequences of C. hominis PheRS alpha (Chro.30378) and beta subunits (Chro.80385) were retrieved from the Crypto DB (https://cryptodb.org/cryptodb/). Genes were inserted to pETM 11 and pETM 20 vectors and both alpha and beta subunits were co-expressed in E. coli B834 competent cells. Recombinant proteins were expressed by growing cells at 37° C. to OD600 of 0.6-0.8, followed by induction with 0.6 mM isopropyl β-d-1-thiogalactopyranoside (IPTG). The cells were later harvested by centrifugation at 5,000×g and cell pellet suspended in a buffer containing 50 mM Tris-HCl (pH 8.8), 200 mM NaCl, 4 mM [3-mercaptoethanol, 10% (v/v) glycerol, 0.1 mg ml-1 lysozyme and 1 mM phenylmethylsulfonyl fluoride (PMSF)]. The bacterial cells were lysed using sonication and cleared by centrifugation at 20,000×g for 45 mins. […]

[2] = test system: transgenic C. parvum (L482+V482 mixed or wt L482); assay: IFN-γ knockout mice infected with transgenic C. parvum, fecal luminescence; type: in vivo, C57BL/6 IFN-γ knockout mice; details: 10 mg/kg for five days (days 4-8 post-infection); day 7
From the text: All mouse studies described in this section were approved by the Institutional Animal Care and Use Committee of the University of Georgia and University of Pennsylvania. Cryptosporidium parvum IOWA-II oocysts were purchased from Bunch Grass Farms, Deary, Id., USA. Oocysts were excysted and electroporated with Cas9/guide plasmid and repair DNA template using Lonza Nucleofector 4D device and previously optimized protocols described in Vinayak, S. et al. Nature 523, 477-480, doi:10.1038/nature14651 (2015) and Pawlowic, et al. Curr Protoc Microbiol 46, 20B 22 21-20B 22 32, doi:10.1002/cpmc.33 (2017), each hereby incorporated by reference in their entirety. C57BL/6 IFN-γ knockout mice (Jackson Laboratory) aged 4-6 weeks (n=5) were infected with transfected sporozoites suspended in PBS using surgery described previously or an oral gavage procedure. The oral gavage procedure involved buffering of the acidic stomach with 8% sodium bicarbonate before delivery of sporozoites.
Fecal samples were collected from cages and luminescence measurements were performed as described in Manjunatha, U. H. et al. Nature 546, 376-380, doi:10.1038/nature22337 (2017) and Vinayak, S. et al. Nature 523, 477-480, doi:10.1038/nature14651 (2015), each hereby incorporated by reference in their entirety. […] During passaging, mice were monitored for weight loss, fur ruffling, hunched posture, and inactivity. […]

[3] = test system: C. parvum (Iowa isolate); assay: EdU incorporation (DNA synthesis) assay of intracellular development in HCT-8 cells; type: cell-based, Cryptosporidium parvum; details: 2×EC90; FIG. 6A legend says EC90
Description: DNA synthesis was assayed during intracellular development of C. parvum (Iowa isolate) within HCT-8 cells by measuring incorporation of the thymidine analogue 5-ethynyl-2′-deoxyuridine (EdU) using epifluorescence microscopy as described in Jumani, R. S. et al. Nat Commun 10, 1862, doi:10.1038/s41467-019-09880-w (2019), hereby incorporated by reference in its entirety. HCT-8 cells were grown to >90% confluence in 96-well plates coated with 50 μg mL^−1 fibronectin (BD Pharmingen, catalog #354008), and then infected using the method described above with ˜5.5×10^4 C. parvum Iowa isolate oocysts per well. Compound 11 was added at 2×EC90 3 hours after infection, followed by incubation for 6 hours and then addition of […] EdU. After incubation for two more hours, the monolayers were washed and fixed with 4% formaldehyde in saline. Cells were then permeabilized, and stained with FITC-Vicia villosa lectin, Hoechst 33258, and for incorporation of EdU using the Click-iT assay kit (Thermo Fisher Scientific). Images were acquired by focusing on the parasite focal plane on top of the host cell monolayer using a 40× objective (0.7 NA), and parasitophorous vacuoles and EdU positive vacuoles were quantified using NIH ImageJ software.

[4] = HepG2 cytotoxicity; type: cell-based; details: human, HepG2 cells

In the case of `COc1ccc(NC(=O)N2CCCCN3[C@H](CN(C)C)[C@H](c4ccc(C#Cc5ccccc5)cc4)[C@@H]3C2)cc1` [Compound 11, (8R,9S,10S)-10-((dimethylamino)methyl)-N-(4-methoxyphenyl)-9-(4-(phenylethynyl)phenyl)-1,6-diazabicyclo[6.2.0]decane-6-carboxamide], the IC50 [1] is reported as 60 nM, the “fecal luciferase activity (parasite shedding)” value [2] is reported as “decrease in luciferase activity” and the “intracellular parasite development (EdU incorporation)” value [3] is reported as “strongly inhibited intracellular parasite development”. The CC50 [4] was 5 µM.
